Experimental data taken from PMC514652, “A single amino acid determines preference between phospholipids and reveals length restriction for activation ofthe S1P4 receptor” (BMC Biochemistry, 2004).
Where a chain is given by its changes, count along the chain named.

What was measured:
S1P4 [1] = molecular target: T1, S1P4 (Homo sapiens, UniProt O95977, E122Q); assay: […]GTPγS binding assay at a single […] concentration (weak agonist); type: cell-based; conditions: read-out: % stimulation over basal at 10 μM
T1 construct: gene S1PR4; HA-S1P4(E3.29(122)Q)-Gαi1(C351I) fusion in CHO-K1 membranes, pertussis toxin treated; with Gαi1(C351I) (fused)
T1 sequence (O95977 1-384 E122Q): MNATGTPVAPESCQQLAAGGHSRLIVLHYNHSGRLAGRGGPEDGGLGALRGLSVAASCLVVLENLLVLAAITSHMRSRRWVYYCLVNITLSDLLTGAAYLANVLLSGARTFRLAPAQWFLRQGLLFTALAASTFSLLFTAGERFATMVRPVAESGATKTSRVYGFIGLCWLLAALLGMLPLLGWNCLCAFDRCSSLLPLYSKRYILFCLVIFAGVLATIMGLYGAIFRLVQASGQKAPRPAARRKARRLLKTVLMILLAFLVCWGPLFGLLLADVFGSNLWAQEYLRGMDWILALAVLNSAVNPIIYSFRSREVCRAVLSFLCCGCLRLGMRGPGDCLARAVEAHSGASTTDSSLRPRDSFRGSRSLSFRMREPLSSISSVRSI

S1P4 [2] = molecular target: T2, S1P4 (Homo sapiens, UniProt O95977); assay: […]GTPγS binding assay, CHO-K1 membranes; type: biochemical
T2 construct: gene S1PR4
T2 sequence (O95977 1-384): T1 sequence (O95977 1-384 E122Q) with Q122E

activation at 10 µM (S1P4 [1])	Compound	EC50 (S1P4 [2])
~19%	CCCCCCCCCCCCCCCC(=O)OC[C@@H](O)COP(=O)(O)O [16:0 LPA]	
	CCCCCCCCCCCCC/C=C/[C@@H](O)[C@@H](N)COP(=O)(O)O [S1P, Sphingosine-1-phosphate]	355 ± 155 nM
